The text below walks through data of patent US12404265B2, “Substituted pyridine derivatives as SARM1 inhibitors” (Nura Bio, Inc., priority 2020, dated 2025).

Some results are limits rather than exact numbers.

This assay concerns the target T1, human SARM1(50-724) (Homo sapiens, UniProt Q6SZW1).
T1 construct: 40 nM human SARM1(50-724)
T1 sequence (Q6SZW1 50-724): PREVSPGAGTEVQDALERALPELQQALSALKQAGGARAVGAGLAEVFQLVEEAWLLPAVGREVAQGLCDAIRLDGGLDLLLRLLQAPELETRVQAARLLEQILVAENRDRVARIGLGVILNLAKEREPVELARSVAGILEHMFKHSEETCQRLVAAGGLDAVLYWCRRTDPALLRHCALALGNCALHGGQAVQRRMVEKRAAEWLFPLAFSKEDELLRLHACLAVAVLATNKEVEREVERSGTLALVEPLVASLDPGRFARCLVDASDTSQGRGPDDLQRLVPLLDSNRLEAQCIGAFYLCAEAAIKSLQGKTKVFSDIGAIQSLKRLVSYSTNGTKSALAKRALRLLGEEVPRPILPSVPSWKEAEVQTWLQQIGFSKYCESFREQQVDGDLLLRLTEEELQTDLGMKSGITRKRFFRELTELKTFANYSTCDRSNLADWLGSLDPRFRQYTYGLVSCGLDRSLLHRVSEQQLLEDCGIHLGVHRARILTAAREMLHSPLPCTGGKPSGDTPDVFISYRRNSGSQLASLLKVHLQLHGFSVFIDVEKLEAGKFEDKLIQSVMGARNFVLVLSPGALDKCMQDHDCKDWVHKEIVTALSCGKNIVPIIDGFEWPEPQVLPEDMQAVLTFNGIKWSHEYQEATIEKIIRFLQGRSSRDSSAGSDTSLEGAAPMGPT
Kind of assay: SARM1 NADase biochemical assay (HPLC of NAD and NAM). Particulars: 40 nM human SARM1(50-724), 0.3 mM NMN, 20 μM NAD, 60 minutes room temperature; dose-response from 100 μM, 1:3 dilution. In a few lines: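 Human SARM1(50-724) at 40 nM with 0.3 mM NMN, 20 μM NAD, 1 mM TCEP in 25 mM HEPES pH 7.4, 10 mM KCl, 10 mM MgCl2, 1% DMSO; 60 min at room temperature, formic acid quench. NAD and NAM quantified by reverse-phase HPLC peak area; single point 50 μM or 1:3 series from 100 μM.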
As a reminder, the IC50 is the midpoint of a concentration-inhibition curve. With `N#Cc1c(F)cc(CCC(=O)Nc2cnn(-c3ccncc3)c2Cl)cc1F` [Example 93, N-(5-Chloro-1-(pyridin-4-yl)-1H-pyrazol-4-yl)-3-(4-cyano-3,5-difluorophenyl)propanamide], the IC50 was less than 1000 nM.
Consider `N#Cc1ccc(CCC(=O)Nc2cnn(-c3ccncc3)c2Cl)cc1F` [Example 94, N-(5-Chloro-1-(pyridin-4-yl)-1H-pyrazol-4-yl)-3-(4-cyano-3-fluorophenyl)propanamide], for which the IC50 was less than 1000 nM.
For `O=C(CCc1ccc(Cl)cc1)Nc1cnn(-c2ccncc2)c1C(F)(F)F` [Example 95, 3-(4-Chlorophenyl)-N-(1-(pyridin-4-yl)-5-(trifluoromethyl)-1H-pyrazol-4-yl)propanamide], the IC50 is less than 1000 nM.
Then `O=C(CCc1ccc(Cl)cc1)Nc1[nH]nc(-c2ccncc2)c1Cl` [Example 96, N-(4-Chloro-3-(pyridin-4-yl)-1H-pyrazol-5-yl)-3-(4-chlorophenyl)propanamide], with less than 1000 nM; and `O=C(CCc1cc(F)c(Cl)c(F)c1)Nc1[nH]nc(-c2ccncc2)c1Cl` [Example 97, 3-(4-Chloro-3,5-difluorophenyl)-N-(4-chloro-3-(pyridin-4-yl)-1H-pyrazol-5-yl)propanamide], with less than 1000 nM; and `O=C(CCc1ccc(Cl)cc1)Nc1cc(-c2ccncc2)n[nH]1` [Example 98, 3-(4-Chlorophenyl)-N-(3-(pyridin-4-yl)-1H-pyrazol-5-yl)propanamide], with less than 1000 nM.
Consider `O=C(CCc1ccc2c(c1)OCO2)Nc1cc(-c2ccncc2)n[nH]1` [Example 99, 3-(Benzo[d][1,3]dioxol-5-yl)-N-(3-(pyridin-4-yl)-1H-pyrazol-5-yl)propanamide], for which the IC50 lay within 1000 to 10000 nM.
Take `O=C(CCc1cccc(Cl)c1)Nc1cc(-c2ccncc2)n[nH]1` [Example 100, 3-(3-Chlorophenyl)-N-(3-(pyridin-4-yl)-1H-pyrazol-5-yl)propanamide]: the IC50 was in the range of 1000 to 10000 nM.
The result for `O=C(CCc1cc(F)c(Cl)c(F)c1)Nc1cc(-c2ccncc2)n[nH]1` [Example 101, 3-(4-Chloro-3,5-difluorophenyl)-N-(3-(pyridin-4-yl)-1H-pyrazol-5-yl)propanamide] reads less than 1000 nM; that for `O=C(CCc1cc(F)c(F)c(F)c1)Nc1cc(-c2ccncc2)n[nH]1` [Example 102, N-(3-(Pyridin-4-yl)-1H-pyrazol-5-yl)-3-(3,4,5-trifluorophenyl)propanamide], less than 1000 nM.
As for `N#Cc1ccc(CCC(=O)Nc2cc(-c3ccncc3)n[nH]2)cc1F` [Example 103], the IC50 was less than 1000 nM.
With `N#Cc1c(F)cc(CCC(=O)Nc2cc(-c3ccncc3)n[nH]2)cc1F` [Example 104, 3-(4-Cyano-3,5-difluorophenyl)-N-(3-(pyridin-4-yl)-1H-pyrazol-5-yl)propanamide], the IC50 is less than 1000 nM.
As to `Cn1c(NC(=O)CCc2ccc(Cl)cc2)cnc1-c1ccncc1` [Example 105, 3-(4-Chlorophenyl)-N-(1-methyl-2-(pyridin-4-yl)-1H-imidazol-5-yl)propanamide], the IC50 was less than 1000 nM.
Regarding `Cc1cnccc1-c1cc(NC(=O)CCc2ccc(Cl)cc2)[nH]n1` [Example 106, 3-(4-Chlorophenyl)-N-(3-(3-methylpyridin-4-yl)-1H-pyrazol-5-yl)propanamide], the IC50 is less than 1000 nM.
Take `Cc1nn(-c2ccncc2)cc1NC(=O)CCc1ccc(Cl)cc1` [Example 107]: the IC50 lay within 1000 to 10000 nM.
With `O=C(CCc1ccc(Cl)cc1)Nc1nc(-c2ccncc2)c[nH]1` [Example 108], the IC50 was 1000 to 10000 nM.
Then `Cc1cnccc1-n1cc(NC(=O)CCc2ccc(Cl)cc2)cn1` [Example 109, 3-(4-Chlorophenyl)-N-(1-(3-methylpyridin-4-yl)-1H-pyrazol-4-yl)propanamide], with 1000 to 10000 nM; and `Cc1cnccc1-c1n[nH]c(NC(=O)CCc2ccc(Cl)cc2)c1C` [Example 110], with less than 1000 nM; and `Cc1cnccc1-c1n[nH]c(NC(=O)CCc2cc(F)c(Cl)c(F)c2)c1C` [Example 111, 3-(4-Chloro-3,5-difluorophenyl)-N-(4-methyl-3-(3-methylpyridin-4-yl)-1H-pyrazol-5-yl)propanamide], with less than 1000 nM.
As to `Cc1cnccc1-c1n[nH]c(NC(=O)CCc2ccc(C#N)c(F)c2)c1C` [Example 112, 3-(4-Cyano-3-fluorophenyl)-N-(4-methyl-3-(3-methylpyridin-4-yl)-1H-pyrazol-5-yl)propanamide], the IC50 lay in the range of 1000 to 10000 nM.
The result for `Cc1cnccc1-c1n[nH]c(NC(=O)CCc2cc(F)c(C#N)c(F)c2)c1C` [Example 113] reads 1000 to 10000 nM.
As to `O=C(CCc1ccc(Br)cc1)Nc1cnn(-c2ccncc2)c1` [Example 114, 3-(4-Bromophenyl)-N-(1-(pyridin-4-yl)-1H-pyrazol-4-yl)propanamide], the IC50 was less than 1000 nM.
For the molecule `O=C(CCc1ccc(F)cc1)Nc1cnn(-c2ccncc2)c1` [Example 115], the IC50 lay within 1000 to 10000 nM.
As for `O=C(CCc1ccc(Cl)cc1)Nc1[nH]nc(-c2ccncc2)c1CO` [Example 116, 3-(4-Chlorophenyl)-N-(4-(hydroxymethyl)-3-(pyridin-4-yl)-1H-pyrazol-5-yl)propanamide], the concentration for half-maximal inhibition (IC50) was less than 1000 nM.
For the molecule `O=C(CCc1cc(F)c(Cl)c(F)c1)Nc1[nH]nc(-c2ccncc2)c1CO` [Example 117, 3-(4-Chloro-3,5-difluorophenyl)-N-(4-(hydroxymethyl)-3-(pyridin-4-yl)-1H-pyrazol-5-yl)propanamide], the IC50 is less than 1000 nM.
The result for `O=C(CCc1ccc(Cl)c(F)c1)Nc1[nH]nc(-c2ccncc2)c1CO` [Example 118] reads less than 1000 nM.
Turning to `O=C(CCc1cc(F)c(F)c(F)c1)Nc1[nH]nc(-c2ccncc2)c1CO` [Example 119], the IC50 was less than 1000 nM.
The result for `Cc1c(-c2ccncc2)n[nH]c1NC(=O)C[S+]([O-])c1ccc(Cl)cc1` (centres unmarked) [Example 120, 2-((4-chlorophenyl)sulfinyl)-N-(4-methyl-3-(pyridin-4-yl)-1H-pyrazol-5-yl)acetamide] reads less than 1000 nM.
In the case of `Cc1c(-c2ccncc2)n[nH]c1NC(=O)CS(=O)(=O)c1ccc(Cl)cc1` [Example 121, 2-((4-chlorophenyl)sulfonyl)-N-(4-methyl-3-(pyridin-4-yl)-1H-pyrazol-5-yl)acetamide], the half-inhibitory concentration (IC50) is less than 1000 nM.
Turning to `COc1c(-c2ccncc2)n[nH]c1NC(=O)CCc1ccc(Cl)cc1` [Example 122, 3-(4-Chlorophenyl)-N-(4-methoxy-3-(pyridin-4-yl)-1H-pyrazol-5-yl)propanamide], the 50% inhibitory concentration (IC50) is less than 1000 nM.
With `O=C(CCc1ccc(Cl)cc1)Nc1[nH]nc(-c2ccncc2)c1C1CC1` [Example 123, 3-(4-Chlorophenyl)-N-(4-cyclopropyl-3-(pyridin-4-yl)-1H-pyrazol-5-yl)propanamide], the IC50 was less than 1000 nM.
For the molecule `Cc1c(-c2ccncc2)n[nH]c1NC(=S)CCc1ccc(Cl)cc1` [Example 124, 3-(4-Chlorophenyl)-N-[4-methyl-3-(pyridin-4-yl)-1H-pyrazol-5-yl]propanethioamide], the IC50 was less than 1000 nM.
Turning to `O=C(CCc1ccc(Cl)cc1)Nc1[nH]nc(-c2ccncc2)c1C(F)(F)F` [Example 125, 3-(4-Chlorophenyl)-N-[3-(pyridin-4-yl)-4-(trifluoromethyl)-1H-pyrazol-5-yl]propanamide], the IC50 was less than 1000 nM.
With `O=C(CCc1cccc(Cl)c1)Nc1cnn(-c2ccncc2)c1Cl` [Example 126, N-[5-Chloro-1-(pyridin-4-yl)-1H-pyrazol-4-yl]-3-(3-chlorophenyl)propanamide], the IC50 was 1000 to 10000 nM.
For the molecule `O=C(CCc1cc(F)c(Cl)c(F)c1)Nc1cnn(-c2ccncc2)c1Br` [Example 127, N-[5-Bromo-1-(pyridin-4-yl)-1H-pyrazol-4-yl]-3-(4-chloro-3,5-difluorophenyl)propanamide], the IC50 is less than 1000 nM.
`N#Cc1c(F)cc(CCC(=O)Nc2[nH]nc(-c3ccncc3)c2Cl)cc1F` [Example 128]: the 50% inhibitory concentration (IC50) was less than 1000 nM.
Then `N#Cc1ccc(CCC(=O)Nc2[nH]nc(-c3ccncc3)c2Cl)cc1F` [Example 129], with less than 1000 nM; and `Cc1c(-c2ccncc2)n[nH]c1NC(=O)OCc1ccc(Cl)cc1` [Example 130, 4-Chlorobenzyl (4-methyl-3-(pyridin-4-yl)-1H-pyrazol-5-yl)carbamate], with less than 1000 nM; and `Cc1c(-c2ccncc2)n[nH]c1NC(=O)N(C)Cc1ccc(Cl)cc1` [Example 131, 1-(4-Chlorobenzyl)-1-methyl-3-(4-methyl-3-(pyridin-4-yl)-1H-pyrazol-5-yl)urea], with 1000 to 10000 nM.
On to `Cn1c(-c2ccncc2)cnc1NC(=O)CCc1ccc(Cl)cc1` [Example 132], for which the IC50 lay in the range of 1000 to 10000 nM.
The result for `CN(C(=O)CCc1ccc(Cl)cc1)c1cnn(-c2ccncc2)c1` [Example 134, 3-(4-Chlorophenyl)-N-methyl-N-(1-(pyridin-4-yl)-1H-pyrazol-4-yl)propanamide] reads 1000 to 10000 nM.
